Assay results taken from patent US20210052512A1, “CANNABIDIOL PREPARATIONS AND ITS USES” (GW Research Limited, priority 2018, published 2021).

How the values were obtained:
[1] = tested on: sub-chronic PCP-induced deficit in novel object recognition; assay: Novel object recognition (NOR) test after sub-chronic PCP; assay type: in vivo, rats
Method: Female hooded-Lister rats were used for this experiment. Rats were housed in groups of 5 under standard laboratory conditions under a 12 hr light: dark cycle, with lights on at 0700 hr. Testing was carried out in the light phase. Rats were randomly assigned to two treatment groups and treated with vehicle, n=20 (distilled water, i.p.) or Phencyclidine hydrochloride (PCP), n=100 (2 mg/kg, i.p. twice daily for 7-days). PCP was dissolved in distilled water. This was followed by a 7-day wash out period before the rats were tested following acute treatment with CBD, risperidone or vehicle.
Risperidone (0.1 mg/kg) was dissolved in a minimum volume of acetic acid, made up to volume with distilled water and pH adjusted to 6 with 0.1M NaOH and administered via the i.p. route in a volume of 1 ml/kg, 120 minutes prior to testing.
Botanically derived purified CBD was tested at 2, 10, 20 or 100 mg/kg and was dissolved in 2:1:17 (Ethanol:Cremofor:Saline 0.9%) and administered via the i.p. route in a volume of 5 ml/kg, 60 minutes prior to testing. The THC concentration in the botanically derived purified CBD was 0.03% (w/w) THC.
Synthetic CBD at 1, 2, 5, 10 or 20 mg/kg was dissolved in 2:1:17 (Ethanol:Cremofor:Saline 0.9%) and administered via the i.p. route in a volume of 5 ml/kg, 120 minutes prior to testing.
Rats were allowed to habituate to the empty test box and the behavioral test room environment for one hour on day 1. Prior to behavioral testing on day 2, rats were given a further 3 minute habituation.
Following the 3 minute habituation period, the rats are given two 3 minute trials (T1 and T2) which were separated by a 1 minute inter-trial interval in the home cage during which the objects were changed. Behavior in all trials was recorded on video for subsequent blind scoring.
In the acquisition trial (T1), the animals were allowed to explore two identical objects (A1 and A2) for 3 minutes. In the retention trial (T2), the animals were allowed to explore a familiar object (A) from T1 and a novel object (B) for 3 minutes. […]
The exploration time(s) of each object (A, B, familiar and novel) in each trial were recorded using two stopwatches and the following factors were calculated: total exploration time of both objects in the acquisition trial, total exploration time of both objects in the retention trial. Habituation of exploratory activity included the exploration time, as measured by the number of lines crossed, for both trials.
All data were assessed for normality using D'Agostino and Pearson normality test. Data non-normally distributed were analyzed using Kruskal-Wallis followed by planned comparisons with Dunn's correction. Normally distributed data were analyzed using one-way ANOVA followed by planned comparisons with Sidak's correction. […]

[2] = tested on: human iPSC derived cerebral cortical neural stem/progenitor cells (hNSCs); assay: Axonal outgrowth and neuronal differentiation of hNSCs (GAP43 immunocytochemistry); assay type: cell-based; settings: 1 μM
Method: Human iPSC-derived cerebral cortical neural stem cells (hNSCs) (Axol Bioscience Inc., UK) were cultured as monolayers at a density of 1.0×10^4 cells/cm^2 on 100 mm diameter Petri dishes. The cells were collected from their original cryovial, suspended in Plating-XF Medium and plated on Petri dishes coated with SureBondXF 1× working solution prepared in D-PBS (without calcium or magnesium). hNSCs were incubated at 37° C. and 5% CO2 and 24 hours after of incubation, the plating medium was replaced with fresh Neural Expansion-XF Medium supplemented with the growth factors Recombinant Human EGF and Recombinant Human FGF2 (final concentration of 20 ng/mL (1×) of FGF2 and EGF). The cultures were re-fed with fresh Neural Expansion-XF supplemented with EGF and FGF2 every two days. When the hNSCs reached approximately 80% confluence, they were prepared for treatment. Pre-warmed Axol Unlock-XF was used to detach the cells and after 3 minutes of incubation the cells were re-suspended in Neural Expansion-XF Medium supplemented with EGF and FGF2. The cells (1×10^4 cells/cm^2) were then plated in Petri dishes coated with SureBondXF 1× and after 2 hours the medium was replaced with fresh Neural Expansion-XF supplemented with EGF and FGF2. […]

[3] = tested on: MES-induced tonic seizures; assay: Maximal electroshock seizure (MES) test; assay type: in vivo, mice; settings: for HED - mg (human equivalent dose): converted to HED of 10 mg/kg, assuming 60 kg human
Method: This study was performed using male C57Bl6 mice, weighing between 23.6-31.2 g, which were purchased from a licensed breeder (Charles River, UK). Naïve mice were acclimatized to the procedure room in their home cages, with food and water available ad libitum. Animals were housed in groups of 2-3, in standard caging on a 12 hr/12 hr light-dark cycle. All animals were tail marked and weighed at the beginning of the study. Animals were randomly assigned to vehicle or treatment groups.
The following drugs were used in this study: synthetic CBD (SYN) and botanically derived purified CBD (BOT). The control vehicle used was (1:1:18), which was 5% Ethanol, 5% Kolliphor, 90% saline, and has been used extensively throughout similar seizure tests. All drugs were dissolved in the control vehicle for comparison. Animals were dosed (10 ml/kg) i.p. at 60 minutes prior to the administration of the maximal electroshock seizure (MES) test. In addition to the vehicle group, the dosage groups used for each treatment and included doses of 10, 50, 100 (Experiment 1 only), 150 and 200 mg/kg for CBD (SYN) and CBD (BOT). The number of animals in each of these groups were 10 (n=10).
Two separate experiments were undertaken using two different batches of the botanically derived purified CBD. In the first experiment the concentration of THC in botanically derived purified CBD was 0.02% THC (w/w) whereas in the second experiment the concentration of THC in the botanically derived purified CBD was approximately 0.1% THC (w/w).
The protective activity of CBD (SYN) and CBD (BOT) was evaluated and expressed as effective doses (ED50 in mg/kg), protecting 50% of mice against MES-induced tonic seizures. Electroconvulsions were produced by a fixed current intensity of 30 mA and corneally delivered electroshock (0.2 second duration). Mice were individually assessed for seizures following this pre-determined high level (30 mA) corneally delivered electroshock of sufficient intensity to reliably produce tonic hind limb extension seizures in 100% of control animals. […]

[4] = tested on: human iPSC derived cerebral cortical neural stem/progenitor cells (hNSCs); assay: Neurogenesis and neuronal differentiation of hNSCs (MAP2+ cell count, immunohistochemistry); assay type: cell-based; settings: for Mean % MAP2+ cells (3 days): 3 days incubation; for Mean % MAP2+ cells (3 days) / Mean % MAP2+ cells (5 days): hNSCs; for Mean % MAP2+ cells (5 days): 5 days incubation
Method: Human iPSC-derived cerebral cortical neural stem cells (hNSCs) (Axol Bioscience Inc., UK) were cultured as monolayers at a density of 1.0×10^4 cells/cm^2 on 100 mm diameter Petri dishes. The cells were collected from their original cryovial, suspended in Plating-XF Medium and plated on Petri dishes coated with SureBondXF 1× working solution prepared in D-PBS (without calcium or magnesium). hNSCs were incubated at 37° C. and 5% CO2 and 24 hours after of incubation, the plating medium was replaced with fresh Neural Expansion-XF Medium supplemented with the growth factors Recombinant Human EGF and Recombinant Human FGF2 (final concentration of 20 ng/mL (1×) of FGF2 and EGF). The cultures were re-fed with fresh Neural Expansion-XF supplemented with EGF and FGF2 every two days. When the hNSCs reached approximately 80% confluence, they were prepared for treatment. Pre-warmed Axol Unlock-XF was used to detach the cells and after 3 minutes of incubation the cells were re-suspended in Neural Expansion-XF Medium supplemented with EGF and FGF2. The cells (1×10^4 cells/cm^2) were then plated in Petri dishes coated with SureBondXF 1× and after 2 hours the medium was replaced with fresh Neural Expansion-XF supplemented with EGF and FGF2.
hNSCs cultured as described above were plated at a density of 1×10^4 cells/cm^2 on SureBondXF-coated coverslips in the presence of botanically derived purified CBD; synthetic CBD; or vehicle diluted in the Neural Differentiation-XF Medium (DM, without growth factors) for 3-5 days at 37° C. in a 5% CO2/95% air atmosphere.
Cannabinoids were dissolved in 95% (v/v) ethanol and added to the medium to obtain final concentrations of 0.1 or 1 μM CBD.
Ethanol was added to the vehicle-treated cells for the whole differentiation period of 3-5 days wherein the final concentration was never higher than 0.05% (v/v).
In order to perform immunohistochemistry, the cells were fixed with 4% (w/v) paraformaldehyde. Nonspecific binding was blocked with 10% (v/v) fetal bovine serum and 0.1% (v/v) Triton X-100 and incubated with primary antibodies: mouse anti-Map2ab (Sigma-Aldrich; 1:200) and rabbit anti-GFAP (DAKO; 1:200) or rabbit anti-Gap43 (Synaptic System; 1:300 at room temperature for 4 hours. Secondary antibodies—anti-mouse Alexa594 (Life Technologies; 1:100) and anti-rabbit Alexa488 (Life Technologies; 1:100)—were used for immunofluorescence. Cells were then counterstained with DAPI, washed with PBS and cover slipped with Aquatex mounting medium (Merck, Darmstadt, Germany). The immunofluorescence was studied with an epifluorescence microscope (Leica AF6000) equipped with the appropriate filter and then acquired using a digital camera (Leica, DFC 340) connected to the microscope and image analysis software (Leica, LAS AF). No immunoreactivity was found in the samples processed for the control of specificity of each primary antibody used in the study, which was performed by omitting the primary antibody before adding the appropriate secondary antibody.
Digital Leica LAS AF 2.2.0 software (Live Data Mode system) was used for counting Map2ab+DAPI+ cells. […] For each experimental condition, cells from 3 different tubes were each analyzed in triplicate and 3 frames were collected at 20× magnification. Data were analyzed with GraphPad Prism 6 software, version 6.05 (GraphPad, Inc.) and are expressed as mean±SEM. Statistical differences among groups were determined by two-way ANOVA followed by post hoc Bonferroni tests for comparison among means. […]

## C=C(C)[C@@H]1CCC(C)=C[C@H]1c1c(O)cc(CCCCC)cc1O [Synthetic CBD, 2-[(1R,6R)-3-Methyl-6-(1-methylethenyl)-2-cyclohexen-1-yl]-5-pentyl-1,3-benzenediol]
[1]; 70 kg human
  human daily amount equivalent to the rat MED: 112 mg/day
[1]; from difference in MED
  amount of CBD required in a human relative to botanically derived purified CBD: five times the amount of CBD
[1]; rat dose multiplied by 0.16 (FDA dose conversion guidance)
  human equivalent dose of the rat MED: 1.6 mg/kg/day
[1]; rats, i.p., 120 min ppt
  minimal effective dose (MED) attenuating sub-chronic PCP-induced deficit in novel object recognition: 10 mg/kg
[2]; 3 days incubation
  Mean % GAP43+ cells (3 days): 8.40 ± 2.0%
[2]; 5 days incubation
  Mean % GAP43+ cells (5 days): 9.15 ± 1.6%
[3]; Experiment 1
  HED - mg (human equivalent dose): 600.0 mg
[3]; Experiment 1, i.p. 60 minutes prior to MES, sigmoidal curve - constant top, listed as CBD (SYN)
  ED50 protecting 50% of mice against MES-induced tonic seizures: 77.60 mg/kg
[3]; Experiment 2
  HED - mg (human equivalent dose): 600.0 mg
[4]; 0.1 μM
  Mean % MAP2+ cells (3 days): 4.87 ± 0.1%
  Mean % MAP2+ cells (5 days): 6.02 ± 0.3%
[4]; 1 μM
  Mean % MAP2+ cells (3 days): 6.11 ± 0.3%
  Mean % MAP2+ cells (5 days): 7.09 ± 0.1%
[4]; 0.1 and 1 μM, 3 or 5 days, relative to vehicle-treated cells
  Effect on neurogenesis and neuronal differentiation of hNSCs (in words): did not have a significant effect
